Test results reported in the supplement of paper PMC4862054.

tested on: MDA-MB-468; assay: normalised response (% of control), CellTox Green; higher = less cell death (100 = DMSO, 0 = benzethonium chloride kill control); conditions: incubation time: 72 h
Procedure, shortened: (§1)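 Breast cancer cell lines were exposed for 72 h in 384-well plates to compound at 5 concentrations, 10-fold apart, covering a 10,000-fold range fixed for each compound. Plates were read for CellTox Green fluorescence and CellTiter-Glo luminescence and normalised to 0.1 % DMSO (100) and a positive kill control (0). Each value is the normalised signal at one concentration of the series.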

SMILES	normalised response [%]
O=C(Cc1ccc(-c2ccc(OCCN3CCOCC3)cc2)cn1)NCc1ccccc1 [KX2-391] (10000 nM)	45.4
CC[C@@H]1C(=O)N(C)c2cnc(Nc3ccc(C(=O)NC4CCN(C)CC4)cc3OC)nc2N1C1CCCC1 [BI 2536] (1000 nM)	98.3
Nc1ccccc1NC(=O)c1ccc(CNC(=O)OCc2cccnc2)cc1 [Entinostat] (10000 nM)	-141
Cc1cnc(NC(=O)Nc2cc(Br)c(C)cc2OC[C@@H]2CNCCO2)cn1 [Rabusertib] (1000 nM)	137
N#Cc1ccc(C(c2ccc(C#N)cc2)n2cncn2)cc1 [Letrozole] (10000 nM)	70.7
Nc1ncn([C@H]2C[C@H](O)[C@@H](CO)O2)c(=O)n1 [Decitabine] (10000 nM)	90
CC[C@H](Nc1ncnc2[nH]cnc12)c1nc2cccc(F)c2c(=O)n1-c1ccccc1 [GS-1101] (10000 nM)	59.5
CC1=C(/C=C/C(C)=C/C=C/C(C)=C/C(=O)O)C(C)(C)CCC1 [Tretinoin] (10000 nM)	127
COc1cc([C@@H]2c3cc4c(cc3[C@@H](O[C@@H]3O[C@@H]5CO[C@@H](c6cccs6)O[C@H]5[C@H](O)[C@H]3O)[C@H]3COC(=O)[C@H]23)OCO4)cc(OC)c1O [Teniposide] (10000 nM)	29.8

tested on: HCC1937; assay: as above; conditions: incubation time: 72 h
Procedure, shortened: as §1

SMILES	normalised response [%]
O=C(Cc1ccc(-c2ccc(OCCN3CCOCC3)cc2)cn1)NCc1ccccc1 [KX2-391] (10000 nM)	12.5
CC[C@@H]1C(=O)N(C)c2cnc(Nc3ccc(C(=O)NC4CCN(C)CC4)cc3OC)nc2N1C1CCCC1 [BI 2536] (1000 nM)	109
Nc1ccccc1NC(=O)c1ccc(CNC(=O)OCc2cccnc2)cc1 [Entinostat] (10000 nM)	43.6
Cc1cnc(NC(=O)Nc2cc(Br)c(C)cc2OC[C@@H]2CNCCO2)cn1 [Rabusertib] (1000 nM)	114
N#Cc1ccc(C(c2ccc(C#N)cc2)n2cncn2)cc1 [Letrozole] (10000 nM)	94.5
Nc1ncn([C@H]2C[C@H](O)[C@@H](CO)O2)c(=O)n1 [Decitabine] (10000 nM)	113
CC[C@H](Nc1ncnc2[nH]cnc12)c1nc2cccc(F)c2c(=O)n1-c1ccccc1 [GS-1101] (10000 nM)	94.4
CC1=C(/C=C/C(C)=C/C=C/C(C)=C/C(=O)O)C(C)(C)CCC1 [Tretinoin] (10000 nM)	61.1
COc1cc([C@@H]2c3cc4c(cc3[C@@H](O[C@@H]3O[C@@H]5CO[C@@H](c6cccs6)O[C@H]5[C@H](O)[C@H]3O)[C@H]3COC(=O)[C@H]23)OCO4)cc(OC)c1O [Teniposide] (10000 nM)	51

tested on: MDA-MB-231; assay: as above; conditions: incubation time: 72 h
Procedure, shortened: as §1

SMILES	normalised response [%]
O=C(Cc1ccc(-c2ccc(OCCN3CCOCC3)cc2)cn1)NCc1ccccc1 [KX2-391] (10000 nM)	50.1
CC[C@@H]1C(=O)N(C)c2cnc(Nc3ccc(C(=O)NC4CCN(C)CC4)cc3OC)nc2N1C1CCCC1 [BI 2536] (1000 nM)	101
Nc1ccccc1NC(=O)c1ccc(CNC(=O)OCc2cccnc2)cc1 [Entinostat] (10000 nM)	29.8
Cc1cnc(NC(=O)Nc2cc(Br)c(C)cc2OC[C@@H]2CNCCO2)cn1 [Rabusertib] (1000 nM)	100
N#Cc1ccc(C(c2ccc(C#N)cc2)n2cncn2)cc1 [Letrozole] (10000 nM)	105
Nc1ncn([C@H]2C[C@H](O)[C@@H](CO)O2)c(=O)n1 [Decitabine] (10000 nM)	126
CC[C@H](Nc1ncnc2[nH]cnc12)c1nc2cccc(F)c2c(=O)n1-c1ccccc1 [GS-1101] (10000 nM)	86.4
CC1=C(/C=C/C(C)=C/C=C/C(C)=C/C(=O)O)C(C)(C)CCC1 [Tretinoin] (10000 nM)	36.8
COc1cc([C@@H]2c3cc4c(cc3[C@@H](O[C@@H]3O[C@@H]5CO[C@@H](c6cccs6)O[C@H]5[C@H](O)[C@H]3O)[C@H]3COC(=O)[C@H]23)OCO4)cc(OC)c1O [Teniposide] (10000 nM)	-78.1

tested on: HCC1143; assay: as above; conditions: incubation time: 72 h
Procedure, shortened: as §1

SMILES	normalised response [%]
O=C(Cc1ccc(-c2ccc(OCCN3CCOCC3)cc2)cn1)NCc1ccccc1 [KX2-391] (10000 nM)	110
CC[C@@H]1C(=O)N(C)c2cnc(Nc3ccc(C(=O)NC4CCN(C)CC4)cc3OC)nc2N1C1CCCC1 [BI 2536] (1000 nM)	113
Nc1ccccc1NC(=O)c1ccc(CNC(=O)OCc2cccnc2)cc1 [Entinostat] (10000 nM)	104
Cc1cnc(NC(=O)Nc2cc(Br)c(C)cc2OC[C@@H]2CNCCO2)cn1 [Rabusertib] (1000 nM)	129
N#Cc1ccc(C(c2ccc(C#N)cc2)n2cncn2)cc1 [Letrozole] (10000 nM)	127
Nc1ncn([C@H]2C[C@H](O)[C@@H](CO)O2)c(=O)n1 [Decitabine] (10000 nM)	117
CC[C@H](Nc1ncnc2[nH]cnc12)c1nc2cccc(F)c2c(=O)n1-c1ccccc1 [GS-1101] (10000 nM)	99.5
CC1=C(/C=C/C(C)=C/C=C/C(C)=C/C(=O)O)C(C)(C)CCC1 [Tretinoin] (10000 nM)	84.1
COc1cc([C@@H]2c3cc4c(cc3[C@@H](O[C@@H]3O[C@@H]5CO[C@@H](c6cccs6)O[C@H]5[C@H](O)[C@H]3O)[C@H]3COC(=O)[C@H]23)OCO4)cc(OC)c1O [Teniposide] (10000 nM)	74.5

tested on: CAL-85-1; assay: as above; conditions: incubation time: 72 h
Procedure, shortened: as §1

SMILES	normalised response [%]
O=C(Cc1ccc(-c2ccc(OCCN3CCOCC3)cc2)cn1)NCc1ccccc1 [KX2-391] (10000 nM)	45.3
CC[C@@H]1C(=O)N(C)c2cnc(Nc3ccc(C(=O)NC4CCN(C)CC4)cc3OC)nc2N1C1CCCC1 [BI 2536] (1000 nM)	43.9
Nc1ccccc1NC(=O)c1ccc(CNC(=O)OCc2cccnc2)cc1 [Entinostat] (10000 nM)	8.15
Cc1cnc(NC(=O)Nc2cc(Br)c(C)cc2OC[C@@H]2CNCCO2)cn1 [Rabusertib] (1000 nM)	59.3
N#Cc1ccc(C(c2ccc(C#N)cc2)n2cncn2)cc1 [Letrozole] (10000 nM)	94.2
Nc1ncn([C@H]2C[C@H](O)[C@@H](CO)O2)c(=O)n1 [Decitabine] (10000 nM)	70
CC[C@H](Nc1ncnc2[nH]cnc12)c1nc2cccc(F)c2c(=O)n1-c1ccccc1 [GS-1101] (10000 nM)	96.4
CC1=C(/C=C/C(C)=C/C=C/C(C)=C/C(=O)O)C(C)(C)CCC1 [Tretinoin] (10000 nM)	55.4
COc1cc([C@@H]2c3cc4c(cc3[C@@H](O[C@@H]3O[C@@H]5CO[C@@H](c6cccs6)O[C@H]5[C@H](O)[C@H]3O)[C@H]3COC(=O)[C@H]23)OCO4)cc(OC)c1O [Teniposide] (10000 nM)	-1.62

tested on: HDQ-P1; assay: as above; conditions: incubation time: 72 h
Procedure, shortened: as §1

SMILES	normalised response [%]
O=C(Cc1ccc(-c2ccc(OCCN3CCOCC3)cc2)cn1)NCc1ccccc1 [KX2-391] (10000 nM)	8.87
CC[C@@H]1C(=O)N(C)c2cnc(Nc3ccc(C(=O)NC4CCN(C)CC4)cc3OC)nc2N1C1CCCC1 [BI 2536] (1000 nM)	93
Nc1ccccc1NC(=O)c1ccc(CNC(=O)OCc2cccnc2)cc1 [Entinostat] (10000 nM)	102
Cc1cnc(NC(=O)Nc2cc(Br)c(C)cc2OC[C@@H]2CNCCO2)cn1 [Rabusertib] (1000 nM)	110
N#Cc1ccc(C(c2ccc(C#N)cc2)n2cncn2)cc1 [Letrozole] (10000 nM)	107
Nc1ncn([C@H]2C[C@H](O)[C@@H](CO)O2)c(=O)n1 [Decitabine] (10000 nM)	110
CC[C@H](Nc1ncnc2[nH]cnc12)c1nc2cccc(F)c2c(=O)n1-c1ccccc1 [GS-1101] (10000 nM)	61.4
CC1=C(/C=C/C(C)=C/C=C/C(C)=C/C(=O)O)C(C)(C)CCC1 [Tretinoin] (10000 nM)	80.3
COc1cc([C@@H]2c3cc4c(cc3[C@@H](O[C@@H]3O[C@@H]5CO[C@@H](c6cccs6)O[C@H]5[C@H](O)[C@H]3O)[C@H]3COC(=O)[C@H]23)OCO4)cc(OC)c1O [Teniposide] (10000 nM)	-41.5

tested on: MFM-223; assay: as above; conditions: incubation time: 72 h
Procedure, shortened: as §1

SMILES	normalised response [%]
O=C(Cc1ccc(-c2ccc(OCCN3CCOCC3)cc2)cn1)NCc1ccccc1 [KX2-391] (10000 nM)	28
CC[C@@H]1C(=O)N(C)c2cnc(Nc3ccc(C(=O)NC4CCN(C)CC4)cc3OC)nc2N1C1CCCC1 [BI 2536] (1000 nM)	90.7
Nc1ccccc1NC(=O)c1ccc(CNC(=O)OCc2cccnc2)cc1 [Entinostat] (10000 nM)	74.4
Cc1cnc(NC(=O)Nc2cc(Br)c(C)cc2OC[C@@H]2CNCCO2)cn1 [Rabusertib] (1000 nM)	82.7
N#Cc1ccc(C(c2ccc(C#N)cc2)n2cncn2)cc1 [Letrozole] (10000 nM)	100
Nc1ncn([C@H]2C[C@H](O)[C@@H](CO)O2)c(=O)n1 [Decitabine] (10000 nM)	90.5
CC[C@H](Nc1ncnc2[nH]cnc12)c1nc2cccc(F)c2c(=O)n1-c1ccccc1 [GS-1101] (10000 nM)	95.4
CC1=C(/C=C/C(C)=C/C=C/C(C)=C/C(=O)O)C(C)(C)CCC1 [Tretinoin] (10000 nM)	103
COc1cc([C@@H]2c3cc4c(cc3[C@@H](O[C@@H]3O[C@@H]5CO[C@@H](c6cccs6)O[C@H]5[C@H](O)[C@H]3O)[C@H]3COC(=O)[C@H]23)OCO4)cc(OC)c1O [Teniposide] (10000 nM)	48.8

tested on: BT-474; assay: as above; conditions: incubation time: 72 h
Procedure, shortened: as §1

SMILES	normalised response [%]
O=C(Cc1ccc(-c2ccc(OCCN3CCOCC3)cc2)cn1)NCc1ccccc1 [KX2-391] (10000 nM)	79.9
CC[C@@H]1C(=O)N(C)c2cnc(Nc3ccc(C(=O)NC4CCN(C)CC4)cc3OC)nc2N1C1CCCC1 [BI 2536] (1000 nM)	97.5
Nc1ccccc1NC(=O)c1ccc(CNC(=O)OCc2cccnc2)cc1 [Entinostat] (10000 nM)	54.9
Cc1cnc(NC(=O)Nc2cc(Br)c(C)cc2OC[C@@H]2CNCCO2)cn1 [Rabusertib] (1000 nM)	103
N#Cc1ccc(C(c2ccc(C#N)cc2)n2cncn2)cc1 [Letrozole] (10000 nM)	102
Nc1ncn([C@H]2C[C@H](O)[C@@H](CO)O2)c(=O)n1 [Decitabine] (10000 nM)	94
CC[C@H](Nc1ncnc2[nH]cnc12)c1nc2cccc(F)c2c(=O)n1-c1ccccc1 [GS-1101] (10000 nM)	97.9
CC1=C(/C=C/C(C)=C/C=C/C(C)=C/C(=O)O)C(C)(C)CCC1 [Tretinoin] (10000 nM)	68.7
COc1cc([C@@H]2c3cc4c(cc3[C@@H](O[C@@H]3O[C@@H]5CO[C@@H](c6cccs6)O[C@H]5[C@H](O)[C@H]3O)[C@H]3COC(=O)[C@H]23)OCO4)cc(OC)c1O [Teniposide] (10000 nM)	59.4

tested on: MDA-MB-453; assay: as above; conditions: incubation time: 72 h
Procedure, shortened: as §1

SMILES	normalised response [%]
O=C(Cc1ccc(-c2ccc(OCCN3CCOCC3)cc2)cn1)NCc1ccccc1 [KX2-391] (10000 nM)	99.2
CC[C@@H]1C(=O)N(C)c2cnc(Nc3ccc(C(=O)NC4CCN(C)CC4)cc3OC)nc2N1C1CCCC1 [BI 2536] (1000 nM)	101
Nc1ccccc1NC(=O)c1ccc(CNC(=O)OCc2cccnc2)cc1 [Entinostat] (10000 nM)	90.6
Cc1cnc(NC(=O)Nc2cc(Br)c(C)cc2OC[C@@H]2CNCCO2)cn1 [Rabusertib] (1000 nM)	104
N#Cc1ccc(C(c2ccc(C#N)cc2)n2cncn2)cc1 [Letrozole] (10000 nM)	98.1
Nc1ncn([C@H]2C[C@H](O)[C@@H](CO)O2)c(=O)n1 [Decitabine] (10000 nM)	103
CC[C@H](Nc1ncnc2[nH]cnc12)c1nc2cccc(F)c2c(=O)n1-c1ccccc1 [GS-1101] (10000 nM)	73.4
CC1=C(/C=C/C(C)=C/C=C/C(C)=C/C(=O)O)C(C)(C)CCC1 [Tretinoin] (10000 nM)	94.4
COc1cc([C@@H]2c3cc4c(cc3[C@@H](O[C@@H]3O[C@@H]5CO[C@@H](c6cccs6)O[C@H]5[C@H](O)[C@H]3O)[C@H]3COC(=O)[C@H]23)OCO4)cc(OC)c1O [Teniposide] (10000 nM)	105

tested on: CAL-51; assay: as above; conditions: incubation time: 72 h
Procedure, shortened: as §1

SMILES	normalised response [%]
O=C(Cc1ccc(-c2ccc(OCCN3CCOCC3)cc2)cn1)NCc1ccccc1 [KX2-391] (10000 nM)	48.7
CC[C@@H]1C(=O)N(C)c2cnc(Nc3ccc(C(=O)NC4CCN(C)CC4)cc3OC)nc2N1C1CCCC1 [BI 2536] (1000 nM)	32
